# Key:
# [1] = tested on: Lyme disease; experiment: Lyme Disease Case Study #2; assay type: in vivo, human; conditions: treatments before coACT A-B, person
# Description: They worked as a full-time project manager for a non-profit food bank, and lives in the United States. Their symptoms first appeared in August of 2010. When […] was first diagnosed they had skin rashes that were not helped with topical treatments, low-grade fevers, severe migraines, continuous muscle aches, sore throat, stomach pain, joint pains, gynecological issues, and constant fatigue. The initial indication was hives on stomach and back which grew to circular rashes on both thighs, all directly following an insect bite from a horse fly.
# From these professionals they were diagnosed not only with Lyme disease, but the following diagnoses and/or misdiagnoses: fibromyalgia, depression, arthritis, pinched nerve, burning mouth syndrome, and mycotoxic poisoning. By May 2011 they were confirmed with Lyme disease and subsequently reconfirmed by another physician in August 2011. Their case of Lyme disease was clinically diagnosed based on lab findings, Western Blot, and symptomatology. […] Tindamax was likewise not tolerated. […] Other anti-fungals caused pain and further reduced their energy levels.
# […] […] They reported climbing the lighthouse stairs in St. Augustine, Fla. without suffering a decrease in energy afterwards, which was atypical for them at that time. […] Kathy has stated that coACT provided them with “a few really good weeks which is invaluable when you haven't functioned normally for some time. For chronic long-term patients, I suspect additional dosing (like every few months or so) is necessary. For newcomers or uncomplicated cases, it could be a bridge to health and healing.
# [2] = tested on: JCV; conditions: literature case reports; cited from earlier work
# [3] = tested on: chikungunya virus; conditions: 250 mg/day; cited from earlier work
# [4] = tested on: chikungunya disease; conditions: cell culture and monkeys; cited from earlier work
Molecule,outcome of earlier treatments in patient history [1],other results
CCCSc1ccc2nc(NC(=O)OC)[nH]c2c1 [Albendazole],seemed to help them with passing parasites,
C[C@@H]1[C@H](O)[C@@H](C)/C=C/C=C/CC/C=C/C=C/C=C/C=C/C(O[C@H]2O[C@H](C)[C@@H](O)[C@H](N)[C@@H]2O)CC2O[C@](O)(CC(O)C(O)CCC(O)CC(O)CC(O)CC(=O)O[C@H]1C)CC(O)C2C(=O)O (some centres unmarked) [Nystatin],neither of which made any detectable difference,
CN1CCCN=C1/C=C/c1cccs1.O=C(O)c1cc2ccccc2c(Cc2c(O)c(C(=O)O)cc3ccccc23)c1O [Pyrantal Pamoate],"helped them to pass parasites in their stool, but left their lifeless, dizzy, and with nystagmus",
Nc1ccn([C@@H]2O[C@H](CO)[C@@H](O)[C@@H]2O)c(=O)n1 [Cytarabine],,clinical outcome in PML patients [2]: stabilized the neurological condition of a minority of these patients
OC(c1cc(C(F)(F)F)nc2c(C(F)(F)F)cccc12)C1CCCCN1 (centres unmarked) [mefloquine],,clinical outcome in PML patients [2]: seemed to eliminate the virus from the patient's body and prevented further neurological deterioration
CCS(=O)(=O)CCn1c([N+](=O)[O-])cnc1C [Tindamax],not tolerated,
Ivermectin,"helped them to pass parasites in their stool, but left their lifeless, dizzy, and with nystagmus",
Nc1nc2c(ncn2COCCO)c(=O)[nH]1 [Acyclovir],caused their symptoms to worsen in that they could not lift their arms,
CCN(CC)CCCC(C)Nc1ccnc2cc(Cl)ccc12 (centres unmarked) [chloroquine phosphate],,effect on arthritis-like symptoms not relieved by aspirin and NSAID [3]: promising results
CO/N=C(\C(=O)N[C@@H]1C(=O)N2C(C(=O)O)=C(CSc3nc(=O)c(=O)[nH]n3C)CS[C@H]12)c1csc(N)n1 [Rocephin],"helped restore their energy, but caused an allergic reaction",
CCN(CC)CCCC(C)Nc1ccnc2cc(Cl)ccc12 (centres unmarked) [chloroquine],,reduction of chikungunya disease [4]: no effect
